In patent US6383773B2, “Penicillin conversion” (Massachusetts Institute of Technology, priority 1998, dated 2002):

Assays:
[1] = system: growing S. clavuligerus NP1 cells; assay: Conversion of penicillin G into DAOG by growing cells (Example 2); assay type: cell-based
Procedure: Media: Seed culture was prepared using 250 ml baffled flasks containing 40 ml MST medium (90 mM MOPS, 3% Trypticase Soy Broth without Dextrose, 1% soluble starch) adjusted to pH 7.0 before autoclaving. Fermentation was carried out in the same medium or in the defined medium described by Mahro and Demain (1987) containing, per liter, 5 g MOPS; 3.5 g K2 HPO4; 1 ml trace solution containing 1 mg FeSO4.7H2O, 1 mg, MnCl2.4H2O, 1 mg ZnSO4.H2O and 1 mg CaCl2; 2 g L-asparagine; 0.6 g MgSO4.7H2O; 10 g glycerol; initial pH 7.0.
Culture Conditions: For the seed culture, each flask was inoculated with 50 μl of a spore suspension (prepared and stored in 20% glycerol at −80° C.) and incubated at 30° C. for 48 h. Fermentation were conducted in 250 ml baffled flasks containing 30 ml of medium at 30° C. at 250 rpm. Fermentations were started by transferring 1.5 ml of unwashed mycelium from the seed culture and their duration was 5 days. Once a day, samples were taken for pH, biomass and antibiotic analyses. Growth was measured as dry cell weight.
Bioassay: Cephalosporin type antibiotic(s) were detected by bioassay using Escherichia coli Ess seeded in LB (1% Tryptone, 0.5% NaCl, 0.5% Yeast Extract, 0.1% Glucose) 0.8% agar medium in the presence of penicillinase (Difco Laboratories, Detroit, Mich.). This is a narrow spectrum β-lactamase that destroys all kinds of penicillins but not cephalosporins. Assays were conducted with filter paper discs saturated with 100 μl of standard (deacetoxycephalosporin G) or supernatants from the fermentation flask. The diameters of zones of growth inhibition were measured after overnight incubation at 37° C.

[2] = system: immobilized S. clavuligerus NP1 cells; assay: Conversion of penicillin G by immobilized cells (Example 5); assay type: cell-based
Procedure: Culture Conditions: A seed culture of S. clavuligerus mutant NP-1 was made by thawing a frozen preparation of spores and inoculating 40μl into 40 ml MST medium containing 90 mM MOPS buffer, pH 7.0, 1% starch and 3% trypticase soy broth medium without dextrose (BBL Becton Dickinson Microbiology Systems, Cockeysville, Md.) in 250 ml baffled flasks. The flasks were incubated for 2 days at 30° C. and 250 rpm. One ml of the seed culture was used as inoculum for the main culture which contained 80 ml of MST medium in 500 ml unbaffled flasks. The flasks were incubated for 24 h at 30° C. and 250 rpm.
Preparation of Resting Cells: Cells were harvested by centrifugation at 14,000×g for 15 min at 4° C. and washed twice with cold deionized water. Washed cells were resuspended in 10 ml of water giving a concentration (wet weight) of about 0.31 g/ml.
Preparation of Polyethyleneimine (PEI)-Barium Alginate Entrapped Cells: Resting cells from a one-day old culture of S. clavuligerus NP-1 (2 g wet weight) were directly resuspended in 20 ml of 1.5% (w/v) sodium alginate solution. The resulting sodium alginate-cell suspension was placed into a 10 ml plastic syringe containing a 26.6 G needle. The suspension was added drop by drop into a slowly stirring hardening solution of 2% (w/v) barium chloride containing 1% (w/v) PEI, giving beads of about 1.5-2.0 mm in diameter. […]

[3] = MST supplemented with 50 μg penicillin G/ml, after 72 hours of incubation
[4] = defined medium, 50 μg/ml penicillin G, after 48 hours
[5] = defined medium, 100 μg/ml penicillin G, after 48 hours

For `CC1(C)S[C@@H]2[C@H](NC(=O)Cc3ccccc3)C(=O)N2[C@H]1C(=O)O` [Penicillin G, penicillin G], the cephalosporin produced [1, 3] was 10.5 μg cephalosporin/ml, the conversion [1, 3] was “approximately 21%” and the “conversion” value ([1]; MST supplemented with 100 μg penicillin G/ml, after 96 hours) was “the same level of conversion”. For the same compound, the cephalosporin produced [1, 4] was 4.55 μg cephalosporin/ml, the conversion rate [1, 4] was 9.1% and the cephalosporin produced [1, 5] was 10.5 μg cephalosporin/ml. For the same compound, the conversion rate [1, 5] was 10.5%, the “cephalosporin production” value ([2]; cells immobilized in agarose (4% w/v) and k-carrageenan (3% w/v)) was “did not observe cephalosporin production” and the “ring expansion” value ([2]; resting cells entrapped in PEI-barium alginate (1.5%)) was “able to expand penicillin G”.
